Experimental data reported in patent publication US4880939A, “2,5,6,7-tetranor-18,18,19,19-tetradehydro-4,8-inter-m-phenylene PGI2 derivatives” (Toray Industries, priority 1986, dated 1989).
Converted amounts (≈) assume the structure as drawn. Read-outs that look alike come from different tables or passages of the source.

Experiments:
gastric acid secretion [1] = test: Gastric acid secretion-inhibiting activity, pylorus ligation method (Shay); assay type: in vivo; details: injected into duodenum, pylorus ligated rats, five hours, five animals; for ED50, Acidity (gastric acid secretion-inhibiting activity) / ED50, Gastric juice volume (gastric acid secretion-inhibiting activity): 300 min; for ED50: Rattus norvegicus, 5 h
Protocol: Gastric acid secretion-inhibiting activity of the compounds of the present invention was investigated according to the pylorus ligation method described by Shay in Gastroenterology, 5, 43 (1945).
Under anesthesia by ether, the abdomen of a group of rats is incised at its median and the pylorus is ligated with a silk thread. Simultaneously, a compound to be tested is injected into the duodenum of the same rat. The abdomen is then closed. Five hours later, the abdomen is again incised and the esophagus is ligated. The whole stomach is then removed. The stomach is cut along the greater curvature and the contents of the stomach are transferred to a graduated centrifugal tube. After centrifugation at 3,000 rpm for 10 minutes, the volume of the gastric juice is measured. A portion of the supernatant is taken and titrated to pH 7 with 0.1N NaOH in a pH stat, Radio Meter Inc. An average dose amount of a compound to be tested in a group of five animals, by which either the volume of gastric juice (in ml) or the acidity (in mEq/ml) is reduced to 50% of the corresponding value of a control group, is designated as ED50.

platelet aggregation = test: Platelet aggregation-inhibiting activity (ADP-induced, platelet-rich plasma); assay type: cell-based, person; details: PRP, ADP 10 μM, compound added one minute before ADP; for IC50: Platelet
Protocol: The blood taken from the cubital median vein of a person is centrifuged at 800 rpm for 10 minutes and the supernatant is used as platelet-rich plasma (PRP). The PRP is distributed into small test tubes, and adenosine diphosphate (ADP) is added at a final concentration of 10 μM thereinto to induce platelet aggregation. The size of the aggregation is determined in a platelet aggregation measuring apparatus (RiKa-Denki, Tokyo, Japan) by measuring the change in turbidity of a sample in the small test tube. A compound to be tested is added to the sample one minute before the addition of ADP. The concentration of the compound to be tested, by which the platelet aggregation is reduced to 50% of that observed in a control group, is designated as IC50.

[2] = tested on: blood pressure in the carotid; test: Hypotensive activity; assay type: in vivo, Wistar male rats; details: dose reducing blood pressure by 25 mmHg, injected via femoral artery, chloralose anesthesia; for ED (25 mmHg): Rattus norvegicus, read-out: ED25 (hypotensive activity)
Protocol: A catheter is inserted into and held in the carotid of a group of Wistar male rats under anesthesia by chloralose. Another end of the catheter is connected to a polygraph with a pressure transducer to measure the blood pressure in the carotid. A compound to be tested is injected via a catheter connected to the femoral artery. A dose amount of a compound to be tested, by which the blood pressure is reduced by 25 mmHg in the dose-response curve of the hypotensive compound, is designated as ED25.

[3] = tested on: lesions appearing on the stomach corpus; test: Gastric cytoprotection activity (method of A. Robert; 0.2N NaOH-induced stomach lesions); assay type: in vivo; details: dose reducing ulcer index to 50% of control, 30 minutes before 0.2N NaOH; for ED50 (gastric cytoprotection activity): oral; for ED50: po
Protocol: Gastric cytoprotection activity of the compounds of the present invention was investigated according to the method described by A. Robert in Gastroenterology, 77(3), 443 (1979).
A compound to be tested is orally administered to a group of animals and, 30 minutes later, 0.2N NaOH is orally applied to the animals. One hour later, the animals are sacrificed under anesthesia by chloroform and their stomachs are removed and fixed in 5% formalin solution. The stomach is then incised along the greater curvature. Lengths of lesions appearing on the stomach corpus are measured and summed. The total length is served as an ulcer index. A dose amount of a compound to be tested, by which the ulcer index is reduced to 50% of the index of a control group (100%), is designated as ED50.

gastric acid secretion [4] = test: Gastric acid secretion-inhibiting activity, method of M. Ghosh and H. Schild (perfused stomach, pentagastrin stimulation); assay type: in vivo, male SD rats; details: ratio of index (area of pH time course) to that of PGE2; femoral vein injection; pentagastrin 0.05 μg/kg per minute
Source text: The gastric acid secretion-inhibiting activity of the compounds of the present invention was also investigated according to the method described by M. Ghosh and H. Schild, Br. J. Pharmacol., 13, 54 (1958).
A group of male SD rats is incised in the abdomen under anesthesia by urethane. The lumen of the stomach is perfused with saline through a double tube cannula which has been inserted into the stomach through a lumen formed in the cardia. The pH of draining gastric acid is monitored by a pH meter. The secretion of gatric acid is stimulated by continuous infusion of pentagastrin at a rate of 0.05 μg/kg per minute. When the pH of the gastric acid becomes stable at about 4.0, a compound to be tested is injected through the femoral vein. An index for the gastric acid secretion-inhibiting activity of a compound to be tested is calculated from the area surrounded by a curve drawn by the time course of the pH of the gastric acid, from the time point when an initial increase of the pH is observed due to the gastric acid secretion-inhibition by the compound injected to the time point when the pH comes back to the baseline. The index thus obtained is compared to that of PGE2 and the ratio of the index to that of PGE2 is calculated.

[5] = tested on: platelet aggregation, gastric acid secretion, peripheral blood vessel; details: background; cited from earlier work
[6] = unstable exo-enol structure; converted into 6-oxo PGF1α; cited from earlier work
[7] = background; cited from earlier work
[8] = background; cited from earlier work; remark: listed apart in the source
[9] = acidity reduced to 50% of control
[10] = gastric juice volume reduced to 50% of control
[11] = acidity reduced to 50% of control, read-out: ED50, Acidity (gastric acid secretion-inhibiting activity)
[12] = gastric juice volume reduced to 50% of control, read-out: ED50, Gastric juice volume (gastric acid secretion-inhibiting activity)

SMILES	Relative activity (PGE2 = 1), gastric acid secretion-inhibiting activity (gastric acid secretion [4])	ED50 (gastric acid secretion [1]; [11]) [µg/kg]	ED50 (gastric acid secretion [1]; [12]) [µg/kg]	IC50 (platelet aggregation) [ng/mL]	ED (25 mmHg) [2] [µg/kg]	ED50 [3] [µg/kg]	other results
CC#CCC(C)C(O)C=CC1C(O)CC2Oc3c(CCC(=O)O)cccc3C21 [Compound 38, 16(R)-Methyl-2,5,6,7-tetranor-18,18,19,19-tetradehydro-4,8-inter-m-phenylene PGI2]							ED50, Acidity (gastric acid secretion-inhibiting activity) (gastric acid secretion [1]; [9]): 490 µg/kg; ED50, Gastric juice volume (gastric acid secretion-inhibiting activity) (gastric acid secretion [1]; [10]): > 1000 µg/kg; IC50 (platelet aggregation-inhibiting activity) (platelet aggregation): 6.5 ng/mL (≈ 16.9 nM); ED25 (hypotensive activity) [2]: 0.57 µg/kg; ED50 (gastric cytoprotection activity) [3]: 24.1 µg/kg
CCCCC[C@H](O)/C=C/[C@H]1[C@H](O)CC(=O)[C@@H]1C/C=C\CCCC(=O)O [PGE2, reference compound]	1						
CCC#CCC(C)C(O)C=CC1C(O)CC2Oc3c(CCC(=O)O)cccc3C21 (stereo not shown) [Compound 42, 16-Methyl-20a-homo-2,5,6,7-tetranor-18,18,19,19-tetradehydro-4,8-inter-m-phenylene PGI2]	26	23	18	0.34 (≈ 0.853 nM)			
CC#CCC(C)C(O)C=CC1C(O)CC2Oc3c(CCC(=O)O)cccc3C21 [Compound 39, 16(S)-methyl-2,5,6,7-tetranor-18,18,19,19-tetradehydro-4,8-inter-m-phenylene PGI2]							ED50, Acidity (gastric acid secretion-inhibiting activity) (gastric acid secretion [1]; [9]): 9.5 µg/kg; ED50, Gastric juice volume (gastric acid secretion-inhibiting activity) (gastric acid secretion [1]; [10]): 25 µg/kg; IC50 (platelet aggregation-inhibiting activity) (platelet aggregation): 0.42 ng/mL (≈ 1.09 nM); ED25 (hypotensive activity) [2]: 0.07 µg/kg; ED50 (gastric cytoprotection activity) [3]: 0.38 µg/kg
CCCCCC#CCC(C)(C)C(O)C=CC1C(O)CC2Oc3c(CCC(=O)O)cccc3C21 (stereo not shown) [Compound 64, 16,16-dimethyl-20a,20b,20c,20d-tetrahomo-2,5,6,7-tetranor-18,18,19,19-tetradehydro-4,8-inter-m-phenylene PGI2]	0.25	> 10000	5600	5.5 (≈ 12.1 nM)	15.5	27.7	
CC#CCC(C)(C)C(O)C=CC1C(O)CC2Oc3c(CCC(=O)O)cccc3C21 (stereo not shown) [Compound 54, 16,16-Dimethyl-2,5,6,7-tetranor-18,18,19,19-tetradehydro-4,8-inter-m-phenylene PGI2]	16	230	> 300	7.3 (≈ 18.3 nM)	0.64	2.8	
CCCCC[C@H](O)/C=C/[C@@H]1[C@H]2C/C(=C/CCCC(=O)O)O[C@H]2C[C@H]1O [PGI2, Prostaglandin I2]							gastric acid secretion-inhibiting activity [5]: potent; peripheral blood vessel-dilating activity [5]: potent; platelet aggregation-inhibiting activity [5]: potent; stability in neutral aqueous solutions [6]: extremely unstable; duration of physiological activities in vivo [7]: only short duration; stability in vivo [7]: unstable in vivo
CC#CCC(C)(C)C(O)C=CC1C(O)CC2Oc3c(CCCO)cccc3C21 (stereo not shown) [Compound 69, 3-Decarboxy-3-hydroxymethyl-16,16-dimethyl-2,5,6,7-tetranor-18,18,19,19-tetradehydro-4,8-inter-m-phenylene PGI2]	2.7	270	> 3000		> 100	0.82	
CCC#CCC(C)(C)C(O)C=CC1C(O)CC2Oc3c(CCC(=O)O)cccc3C21 (stereo not shown) [Compound 57, 16,16-Dimethyl-20a-homo-2,5,6,7-tetranor-18,18,19,19-tetradehydro-4,8-inter-m-phenylene PGI2]	5.3	87	210	3.2 (≈ 7.76 nM)	0.14	1.14	
CCCCC[C@H](O)/C=C/[C@@H]1[C@@H](CC(=O)CCCCC(=O)O)[C@@H](O)C[C@H]1O [6-oxo PGF1α]							physiological activity [8]: substantially inactive physiologically
CCCCC#CCC(C)C(O)C=CC1C(O)CC2Oc3c(CCC(=O)O)cccc3C21 (stereo not shown) [Compound 50, 16-Methyl-20a,20b,20c-trihomo-2,5,6,7-tetranor-18,18,19,19-tetradehydro-4,8-inter-m-phenylene PGI2]		740	510	0.63 (≈ 1.48 nM)		3.74	
CCCCC#CCC(C)(C)C(O)C=CC1C(O)CC2Oc3c(CCC(=O)O)cccc3C21 (stereo not shown) [Compound 60, 16,16-Dimethyl-20a,20b,20c-trihomo-2,5,6,7-tetranor-18,18,19,19-tetradehydro-4,8-inter-m-phenylene PGI2]	0.5	> 3000	> 3000	3 (≈ 6.81 nM)			
CCCC#CCC(C)C(O)C=CC1C(O)CC2Oc3c(CCC(=O)O)cccc3C21 (stereo not shown) [Compound 46, 16-Methyl-20a,20b-dihomo-2,5,6,7-tetranor-18,18,19,19-tetradehydro-4,8-inter-m phenylene PGI2]		140	120	0.96 (≈ 2.33 nM)	0.22	2.33	
